Several values for one entry are separate records, joined by “and”; a condition that tells them apart may be missing. Equal values may be shown once.
Experiments:
143B cells = experiment: Membrane potential measurement by TMRM fluorescence; assay type: cell-based, human
Procedure: 143B cells were seeded at 5 × 10^5 cells per 10 cm^2 well in DMEM containing 10 % FBS. […] The detached cells from each well were incubated in PBS containing 25 pg/mL tetramethylrhodamine, methyl ester (TMRM) and 20 μg/mL Hoescht stain for 20 min at 37 °C then washed twice and re-suspended in 200 μL PBS. TMRM fluorescence was detected using a NucleoCounter® NC 3000 cytometer with excitation at 530 nm and emission at 575 nm, with the Hoescht stain used to check for consistent cell density between samples.

[1] = biological target: isolated bovine heart complex I (Bos taurus, UniProt P03887+P03898+P17694+P42026); experiment: NADH:decylubiquinone oxidoreduction by isolated complex I; assay type: biochemical; details: bovine heart purified mitochondrial complex I, read-out: average % (rate, % of no-inhibitor control)
Procedure: (§1) Complex I and mitochondrial membranes were prepared from Bos taurus (bovine) heart. Intact mitochondria were isolated from rat liver and mouse heart and liver. Membranes were prepared from mouse heart mitochondria by 5 s bursts of sonication at 4 °C and collected by centrifugation (75,000 × g, 1 h).
(§2) Assays were performed at 32 °C in a SpectraMax 96-well plate reader. NADH:decylubiquinone oxidoreduction by complex I at 0.5 μg mL^−1 was measured in 20 mM Tris-HCl (pH 7.2), 0.15 % soy bean asolectin (Avanti Polar Lipids), and 0.15 % 3-((3-cholamidopropyl)dimethylammonium)-1-propanesulfonate (CHAPS, Merck Chemicals Ltd), with 200 μM decylubiquinone and 200 μM NADH, and monitored using ε340–380(NADH) = 4.81 mM^−1 cm^−1 [23]. Catalysis was initiated by addition of NADH and maximal rates determined by linear regression. NADH:O2 oxidoreduction by membranes was measured similarly but using 5 μg mL^−1 membranes in 10 mM Tris-HCl (pH 7.4) and 250 mM sucrose using 200 μM NADH and supplemented with 0.15 mM horse heart cytochrome c (Sigma-Aldrich Ltd.). Succinate:O2 oxidoreduction was measured using 40 μg mL^−1 membranes in 5 mM succinate in 10 mM Tris-HCl (pH 7.4) as described previously. Control experiments included NaCl (to match the ionic strength) or DMSO, as appropriate.
(§3) Experimental values are reported as mean averages ± standard deviation (SD) of technical replicates for large sample sizes and mean averages ± standard error of the mean (SEM) of technical replicates for small sample sizes. Data were analyzed by the unpaired two-tailed Student’s t test. IC50 values were determined using the standard dose-effect relationship (activity (%) = 100 × IC50 / (IC50 + [inhibitor]^m) with the Hill Slope (m) set to unity for purified complex I) and are reported with 95 % confidence intervals.

[2] = biological target: bovine heart mitochondrial membranes (complex I) (Bos taurus, UniProt P03887+P03898+P17694+P42026); experiment: NADH:O2 oxidoreduction by bovine heart mitochondrial membranes (complexes I-III-IV); assay type: biochemical; details: bovine heart mitochondrial membranes, read-out: average % (rate, % of no-inhibitor control)
Procedure: as §1, §2, §3

[3] = biological target: mouse heart mitochondrial membranes (complex I) (Mus musculus, UniProt P03888+P03899+Q91WD5+Q9DC70); experiment: NADH:O2 oxidoreduction by mouse heart mitochondrial membranes; assay type: biochemical; details: read-out: average % (rate, % of no-inhibitor control)
Procedure: as §1, §2, §3

mouse heart mitochondrial membranes (complex I), sequence (P03899 whole entry): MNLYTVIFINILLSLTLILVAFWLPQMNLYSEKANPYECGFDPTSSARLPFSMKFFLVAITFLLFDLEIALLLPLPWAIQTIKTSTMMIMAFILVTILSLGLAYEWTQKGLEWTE
mouse heart mitochondrial membranes (complex I), sequence (P03888 whole entry): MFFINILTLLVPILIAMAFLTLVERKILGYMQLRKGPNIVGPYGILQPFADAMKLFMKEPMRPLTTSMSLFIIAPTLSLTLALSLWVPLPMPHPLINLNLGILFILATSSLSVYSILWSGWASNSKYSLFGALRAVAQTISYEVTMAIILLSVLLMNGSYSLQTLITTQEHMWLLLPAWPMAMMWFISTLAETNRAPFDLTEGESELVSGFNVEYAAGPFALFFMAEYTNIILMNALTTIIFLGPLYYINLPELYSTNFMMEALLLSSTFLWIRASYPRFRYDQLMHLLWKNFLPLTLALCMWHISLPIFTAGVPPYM
mouse heart mitochondrial membranes (complex I), sequence (Q9DC70 36-224): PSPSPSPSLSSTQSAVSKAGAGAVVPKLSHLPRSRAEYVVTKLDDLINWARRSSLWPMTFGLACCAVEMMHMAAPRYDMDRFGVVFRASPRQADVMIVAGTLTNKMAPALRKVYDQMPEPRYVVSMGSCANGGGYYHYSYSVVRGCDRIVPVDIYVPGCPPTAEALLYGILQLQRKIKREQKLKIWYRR
mouse heart mitochondrial membranes (complex I), sequence (Q91WD5 34-463): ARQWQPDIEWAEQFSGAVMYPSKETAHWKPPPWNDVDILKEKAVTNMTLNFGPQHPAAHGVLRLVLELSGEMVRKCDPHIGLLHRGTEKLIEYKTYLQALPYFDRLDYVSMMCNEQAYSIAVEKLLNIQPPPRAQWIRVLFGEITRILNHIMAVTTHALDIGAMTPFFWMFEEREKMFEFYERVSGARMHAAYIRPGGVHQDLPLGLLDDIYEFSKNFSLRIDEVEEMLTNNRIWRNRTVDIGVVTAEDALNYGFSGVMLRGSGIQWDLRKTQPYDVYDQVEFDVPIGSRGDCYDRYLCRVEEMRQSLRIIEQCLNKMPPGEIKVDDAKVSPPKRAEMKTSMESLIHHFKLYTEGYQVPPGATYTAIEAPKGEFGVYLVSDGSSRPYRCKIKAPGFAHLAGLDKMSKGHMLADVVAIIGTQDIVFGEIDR
bovine heart mitochondrial membranes (complex I), sequence (P42026 38-216): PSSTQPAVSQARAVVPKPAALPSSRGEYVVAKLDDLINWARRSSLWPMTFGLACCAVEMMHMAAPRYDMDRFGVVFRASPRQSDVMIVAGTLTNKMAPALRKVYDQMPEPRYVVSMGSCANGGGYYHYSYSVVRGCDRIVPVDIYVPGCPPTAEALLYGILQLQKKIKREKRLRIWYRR
bovine heart mitochondrial membranes (complex I), sequence (P17694 34-463): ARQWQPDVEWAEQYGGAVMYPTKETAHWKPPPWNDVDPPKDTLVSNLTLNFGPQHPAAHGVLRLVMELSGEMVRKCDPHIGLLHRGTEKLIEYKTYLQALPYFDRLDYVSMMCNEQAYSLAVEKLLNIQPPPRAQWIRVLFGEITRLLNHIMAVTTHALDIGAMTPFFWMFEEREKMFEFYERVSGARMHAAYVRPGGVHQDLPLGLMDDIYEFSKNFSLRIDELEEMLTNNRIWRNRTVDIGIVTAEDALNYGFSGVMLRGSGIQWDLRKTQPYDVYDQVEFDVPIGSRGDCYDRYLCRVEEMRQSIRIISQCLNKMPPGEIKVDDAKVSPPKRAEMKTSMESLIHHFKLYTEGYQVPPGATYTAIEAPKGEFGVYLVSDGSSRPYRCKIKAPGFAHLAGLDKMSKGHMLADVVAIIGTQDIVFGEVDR
bovine heart mitochondrial membranes (complex I), sequence (P03887 whole entry): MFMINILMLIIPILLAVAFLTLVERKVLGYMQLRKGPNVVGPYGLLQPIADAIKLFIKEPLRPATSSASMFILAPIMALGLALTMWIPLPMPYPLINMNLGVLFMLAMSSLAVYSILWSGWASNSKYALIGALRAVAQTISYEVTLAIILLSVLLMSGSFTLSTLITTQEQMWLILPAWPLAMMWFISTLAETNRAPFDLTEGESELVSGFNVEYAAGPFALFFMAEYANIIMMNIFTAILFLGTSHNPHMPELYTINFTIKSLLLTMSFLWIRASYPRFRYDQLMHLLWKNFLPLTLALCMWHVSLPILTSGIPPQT
bovine heart mitochondrial membranes (complex I), sequence (P03898 whole entry): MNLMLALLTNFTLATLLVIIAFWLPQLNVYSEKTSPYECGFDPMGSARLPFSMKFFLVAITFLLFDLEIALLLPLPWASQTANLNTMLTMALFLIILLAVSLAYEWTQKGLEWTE
isolated bovine heart complex I, sequence (P42026 38-216): as the sequence (P42026 38-216) above
isolated bovine heart complex I, sequence (P17694 34-463): as the sequence (P17694 34-463) above
isolated bovine heart complex I, sequence (P03898 whole entry): as the sequence (P03898 whole entry) above
isolated bovine heart complex I, sequence (P03887 whole entry): as the sequence (P03887 whole entry) above

With N#CC(C#N)=NNc1ccc(OC(F)(F)F)cc1 [FCCP, carbonyl cyanide-4-(trifluoromethoxy)phenylhydrazone] the “TMRM fluorescence, % of the control value” (143B cells; after 6.5 h, phenformin at IC50/10 (34 μM), FCCP at 1 μM, n = 3) was 13.43 ± 1.7%, the “mean-y (TMRM)” value (143B cells; individual replicates, phenformin 6.5 hours) was 1862.7 and 2673.4 and 1873.5 and the TMRM average (143B cells; n 3, phenformin 6.5 hours) was 2136.53. The “TMRM average, % control” value (143B cells; n 3, phenformin 6.5 hours) was 13.43 % control.

For N=C(N)N=C(N)Nc1ccccc1 [compound2], the remaining activity at 50 µM ([1]; inhibitor 0.05 mM) was 89%, the remaining activity at 100 µM ([1]; inhibitor 0.10 mM) was 82.1% and the remaining activity at 200 µM ([1]; inhibitor 0.20 mM) was 70%. For the same compound, the remaining activity at 400 µM ([1]; inhibitor 0.40 mM) was 50.6%, the remaining activity at 1000 µM ([1]; inhibitor 1.00 mM) was 33.6% and the remaining activity at 2000 µM ([1]; inhibitor 2.00 mM) was 17.4%. For the same compound, the remaining activity at 2500 µM ([1]; inhibitor 2.50 mM) was 15.2%, the remaining activity at 25 µM ([2]; inhibitor 0.025 mM) was 91.2% and the remaining activity at 50 µM ([2]; inhibitor 0.05 mM) was 80.9%. For the same compound, the remaining activity at 120 µM ([2]; inhibitor 0.12 mM) was 74.7%, the remaining activity at 250 µM ([2]; inhibitor 0.25 mM) was 59.3% and the remaining activity at 500 µM ([2]; inhibitor 0.50 mM) was 43.6%. For the same compound, the remaining activity at 1250 µM ([2]; inhibitor 1.25 mM) was 32%, the remaining activity at 2500 µM ([2]; inhibitor 2.50 mM) was 21.2% and the remaining activity at 25 µM ([3]; inhibitor 0.025 mM) was 100%. For the same compound, the remaining activity at 50 µM ([3]; inhibitor 0.05 mM) was 91.6%, the remaining activity at 130 µM ([3]; inhibitor 0.13 mM) was 95.5% and the remaining activity at 250 µM ([3]; inhibitor 0.25 mM) was 81.9%. For the same compound, the remaining activity at 500 µM ([3]; inhibitor 0.50 mM) was 59.6%, the remaining activity at 1250 µM ([3]; inhibitor 1.25 mM) was 40.4% and the remaining activity at 2500 µM ([3]; inhibitor 2.50 mM) was 27%.

Reference: publication PMC4977651, “Molecular features of biguanides required for targeting of mitochondrial respiratory complex I and activation of AMP-kinase” (BMC Biology, 2016)
